In US4581354A, “3-arylcarbonyl- and 3-cycloalkylcarbonyl-1-aminoalkyl-1H-indoles, compositions and use” (Sterling Drug Inc., priority 1985, dated 1986):
Where two headings read alike, the source gives them in different places.

Tested on: acetylcholine-induced abdominal constriction
Test: animal or person
Assay type: in vivo, mice
Details: for ED50: read-out: Ach ED50; for inhibition in vivo at 100 mg/kg: 100 mg./kg. oral; for inhibition in vivo at 3 mg/kg: 3 mg./kg. i.v.; for inhibition in vivo at 10 mg/kg: 10 mg./kg. i.v.; for inhibition in vivo at 300 mg/kg: 300 mg./kg. oral; for inhibition in vivo at 1000 mg/kg: 1000 mg./kg. oral; for inhibition in vivo at 550 mg/kg: 550 mg./kg. oral
Text: The test procedures used to determine the analgesic activities of the compounds have been described in detail in the prior art and are as follows: The acetylcholine-induced abdominal constriction test, which is a primary analgesic screening test designed to measure the ability of a test agent to suppress acetylcholine-induced abdominal constriction in mice, described by Collier et al., Brit. J. Pharmacol. Chemotherap. 32, 295 (1968); a modification of the anti-bradykinin test, which is also a primary analgesic screening procedure, described by Berkowitz et al., J. Pharmacol. Exptl. Therap. 177, 500-508 (1971), Blane et al., J. Pharm. Pharmacol. 19, 367-373 (1967), Botha et al., Eur. J. Pharmacol. 6, 312-321 (1969) and Deffenu et al., J. Pharm. Pharmacol. 18, 135 (1966); and the rat paw flexion test, described by Kuzuna et al., Chem. Pharm. Bull., 23, 1184-1191 (1975), Winter et al., J. Pharm. Exptl. Therap., 211, 678-685 (1979) and Capetola et al., J. Pharm. Exptl. Therap. 214, 16-23 (1980).
Unless noted otherwise, all data were obtained on oral administration and are expressed either as the ED50 or as the percent inhibition at a given dose level (thus 30/100 or 30% inhibition at […].)
In some instances, the compounds were retested two or more times, and ED50 values were calculated for each series of repeat tests. In such instances, each of the ED50 values so-obtained is given in a series of values, thus 6, 28, 30, 43 in the case of the species of Example 1AW in the acetylcholine-induced abdominal constriction test.

[1] = Mus musculus, po, read-out: Ach percent inhibition
[2] = Mus musculus, iv, read-out: Ach percent inhibition
[3] = Mus musculus, iv, 30 mg./kg. i.v., read-out: Ach percent inhibition
[4] = Mus musculus, po, 30 mg./kg. oral, read-out: Ach percent inhibition

| Structure (SMILES) | ED50 (Mus musculus, po) [mg/kg] | inhibition in vivo at 100 mg/kg [1] [%] | other results |
| --- | --- | --- | --- |
| COc1ccc(C(=O)c2c(C)n(CCCN3CCCCC3)c3ccc(F)cc23)cc1 [Example 1BN] | 36 | – | – |
| Cc1c(C(=O)c2ccccc2)c2cc(F)ccc2n1CCCN1CCOCC1 [Example 1BO] | 173 | – | – |
| CCN(CC)CCCn1c(C)c(C(=O)c2ccc(OC)cc2)c2cc(F)ccc21 [Example 1BP] | 28 | – | – |
| COc1ccc(C(=O)c2c(C)n(CCCN3CCOCC3)c3c(F)cc(F)cc23)cc1 [Example 1BR] | 123 | – | – |
| COc1ccc(C(=O)c2c(C)n(C(C)CCN3CCOCC3)c3ccc(F)cc23)cc1 (stereo not shown) [Example 1BT] | – | 90 | – |
| Cc1c(C(=O)c2ccccc2F)c2cc(F)ccc2n1C(C)CCN1CCOCC1 (stereo not shown) [Example 1BW] | – | 10 | – |
| Cc1c(C(=O)c2ccc(-c3ccccc3)cc2)c2ccccc2n1CCN1CCOCC1 [Example 1BZ] | – | 0 | – |
| Cc1c(C(=O)c2cccc3c2OCO3)c2ccccc2n1CCN1CCOCC1 [Example 1CA] | – | 20 | – |
| Cc1c(C(=O)c2ccccc2-c2ccccc2)c2ccccc2n1CCN1CCOCC1 [Example 1CB] | – | 60 | – |
| Cc1c(C(=O)c2ccc(C#N)cc2)c2cc(F)ccc2n1CCN1CCOCC1 [Example 1CC] | – | 10 | – |
| Cc1c(C(=O)c2ccccc2F)c2ccccc2n1C(C)CCN1CCOCC1 (stereo not shown) [Example 1CD] | 79 | – | – |
| CCN(CC)CCn1c(C)c(C(=O)c2ccc3ccccc3c2)c2ccccc21 [Example 1CE] | – | 0 | – |
| COc1ccc(C(=O)c2c(C)n(CCCN3CCCC3)c3ccccc23)cc1 [Example 1CF] | 24 | – | – |
| COc1ccc(C(=O)c2c(C)n(CCCN3CCCC3)c3ccccc23)cc1 [Example 1CG] | – | – | Ach ED50 (oral): 46.3 mg/kg |
| CN(C)CCn1cc(C(=O)c2ccccc2)c2ccccc21 [Example 1CH] | 105 | – | – |
| COc1ccc(C(=O)c2c(C)n(CCCCCN3CCOCC3)c3ccc(F)cc23)cc1 [Example 1CI] | – | 70 | – |
| COc1ccc(C(=O)c2c(C)n(CCCCN3CCOCC3)c3ccc(F)cc23)cc1 [Example 1CJ] | 56 | – | – |
| Cc1c(C(=O)c2cccc(F)c2F)c2ccccc2n1CCN1CCOCC1 [Example 1CK] | – | 30 | – |
| Cc1cccc(C)c1C(=O)c1c(C)n(CCN2CCOCC2)c2ccccc12 [Example 1CL] | – | 30 | – |
| Cc1c(C(=O)c2ccco2)c2ccccc2n1CCN1CCOCC1 [Example 1C] | 126 | – | – |
| COc1ccc(C(=O)c2c(C)n(CCN3CCOCC3)c3c(C)cccc23)cc1 [Example 1E] | – | 0 | – |
| COc1ccc(C(=O)c2c(C)n(CCN3CCOCC3)c3ccc(F)cc23)cc1 [Example 1G] | 84 | – | inhibition in vivo at 3 mg/kg [2]: 0%; inhibition in vivo at 10 mg/kg [2]: 50%; inhibition in vivo at 30 mg/kg [3]: 100% |
| COc1ccc(C(=O)c2c(C)n(CCN3CCOCC3)c3ccccc23)cc1 [Example 1H] | – | 33 | inhibition in vivo at 3 mg/kg [2]: 0%; inhibition in vivo at 10 mg/kg [2]: 30%; inhibition in vivo at 30 mg/kg [3]: 100%; inhibition in vivo at 300 mg/kg [1]: 71%; inhibition in vivo at 30 mg/kg (Mus musculus, sc, 30 mg./kg. s.c., read-out: Ach percent inhibition): 2% |
| COc1ccc(C(=O)c2c(C)n(CCCN3CCOCC3)c3ccc(F)cc23)cc1.Cl [Example 1I, 5-fluoro-2-methyl-3-(4-methoxybenzoyl)-1-[3-(4-morpholinyl)propyl]-1H-indole hydrochloride] | 75 | – | ED50 (Mus musculus, iv): 8.5 mg/kg |
| COc1ccc(C(=O)c2c(C)n(CCN3CCOCC3)c3ccccc23)cc1 [Example 1J] | – | – | Ach ED50 (i.v.): 6.7 mg/kg; Ach ED50 (oral): 86 mg/kg |

| Structure (SMILES) | ED50 (Mus musculus, po) [mg/kg] | inhibition in vivo at 100 mg/kg [1] [%] | other results |
| --- | --- | --- | --- |
| COc1ccc(C(=O)c2c(C)n(CCN3CCCC3)c3ccccc23)cc1 [Example 1K] | 255 | – | inhibition in vivo at 3 mg/kg [2]: 30%; inhibition in vivo at 5.5 mg/kg (Mus musculus, iv, 5.5 mg./kg. i.v., read-out: Ach percent inhibition): 25%; inhibition in vivo at 10 mg/kg [2]: 44% |
| COc1ccc(C(=O)c2c(C)n(CCN3CCOCC3)c3c(F)cccc23)cc1 [Example 1M] | – | 50 | – |
| COc1ccc(C(=O)c2c(C)n(CCN3CCOCC3)c3c(OC)cccc23)cc1 [Example 1N] | 35.8 | – | – |
| Cc1c(C(=O)c2ccc(F)cc2)c2ccccc2n1CCN1CCOCC1 [Example 1Q, 3-(4-fluorobenzoyl)-2-methyl-1-[2-(4-morpholinyl)ethyl]-1H-indole] | – | – | inhibition in vivo at 24 mg/kg (Mus musculus, po, 24 mg./kg. oral, read-out: Ach percent inhibition): 7%; inhibition in vivo at 79 mg/kg (Mus musculus, po, 79 mg./kg. oral, read-out: Ach percent inhibition): 27%; inhibition in vivo at 238 mg/kg (Mus musculus, po, 238 mg./kg. oral, read-out: Ach percent inhibition): 60%; inhibition in vivo at 435 mg/kg (Mus musculus, po, 435 mg./kg. oral, read-out: Ach percent inhibition): 67%; inhibition in vivo at 793 mg/kg (Mus musculus, po, 793 mg./kg. oral, read-out: Ach percent inhibition): 60%; inhibition in vivo at 1000 mg/kg [1]: 67% |
| Cc1c(C(=O)c2ccc3c(c2)OCO3)c2ccccc2n1CCN1CCOCC1 [Example 1R] | 198 | – | – |
| Cc1c(C(=O)c2csc3ccccc23)c2ccccc2n1CCN1CCOCC1 [Example 1T] | 106 | – | ED50 (Mus musculus, iv): 3.8 mg/kg |
| COc1ccccc1C(=O)c1c(C)n(CCN2CCOCC2)c2ccccc12 [Example 1U, 2-methyl-3-(2-methoxybenzoyl)-1-[2-(4-morpholinyl)ethyl]-1H-indole] | 155 | – | – |
| COc1ccc(C(=O)c2c(C)n(CCN3CCOCC3)c3ccccc23)cc1F [Example 1V] | – | – | inhibition in vivo at 300 mg/kg [1]: 20% |
| Cc1c(C(=O)c2ccc3ccccc3c2)c2ccccc2n1CCN1CCOCC1 [Example 1W] | – | – | inhibition in vivo at 1 mg/kg (Mus musculus, iv, 1 mg./kg. i.v., read-out: Ach percent inhibition): 10%; inhibition in vivo at 1.73 mg/kg (Mus musculus, iv, 1.73 mg./kg. i.v., read-out: Ach percent inhibition): 0%; inhibition in vivo at 3 mg/kg [2]: 86%; inhibition in vivo at 30 mg/kg [4]: 0%; inhibition in vivo at 300 mg/kg [1]: 40%; inhibition in vivo at 550 mg/kg [1]: 47% |
| COc1ccc(C(=O)c2cn(CCN3CCOCC3)c3ccc(C)cc23)cc1 [Example 1X] | – | – | inhibition in vivo at 300 mg/kg [1]: 7% |
| Cc1c(C(=O)c2cccc(F)c2)c2ccccc2n1CCN1CCOCC1 [Example 1Y] | – | 30 | – |
| Cc1c(C(=O)c2ccccc2F)c2ccccc2n1CCN1CCOCC1 [Example 1Z, 3-(2-fluorobenzoyl)-2-methyl-1-[2-(4-morpholinyl)-ethyl]-1H-indole] | 68 | – | – |
| Cc1c(C(=O)c2ccc(S(C)(=O)=O)cc2)c2ccccc2n1CCN1CCOCC1 [Example 2-O] | – | 20 | – |
| Cc1ccc(C(=O)c2cn(C(C)CN3CCOCC3)c3ccccc23)cc1 (stereo not shown) [Example 2A, 3-(4-methylbenzoyl)-1-[1-methyl-2-(4-morpholinyl)ethyl]-1H-indole] | – | – | inhibition in vivo at 30 mg/kg [4]: 7%; inhibition in vivo at 300 mg/kg [1]: 60%; inhibition in vivo at 550 mg/kg [1]: 73%; inhibition in vivo at 1000 mg/kg [1]: 67% |
| COc1ccc(C(=O)c2c(Cl)n(CCN3CCOCC3)c3ccccc23)cc1 [Example 2AB] | 91 | – | – |
| CCCc1ccc(C(=O)c2c(C)n(CCN3CCOCC3)c3ccccc23)cc1 [Example 2AC] | – | 30 | – |
| Cc1ccccc1C(=O)c1c(C)n(CCCN2CCOCC2)c2ccc(F)cc12 [Example 2AD] | – | 10 | – |
| Cc1c(C(=O)c2ccc(F)cc2)c2cc(F)ccc2n1CCCN1CCOCC1 [Example 2AE] | – | 20 | – |
| Cc1c(C(=O)c2ccoc2)c2cc(F)ccc2n1CCCN1CCOCC1 [Example 2AF] | – | 30 | – |
| Cc1c(C(=O)C=Cc2ccccc2)c2cc(F)ccc2n1CCCN1CCOCC1 [Example 2AG] | 143 | – | – |
| Cc1c(C(=O)c2ccc(F)cc2F)c2cc(F)ccc2n1CCN1CCOCC1 [Example 2AH] | – | 20 | – |
| Cc1c(C(=O)c2cccc3ccccc23)c2ccccc2n1C(C)CN1CCOCC1 (stereo not shown) [Example 2AK] | – | – | inhibition in vivo at 0.3 mg/kg (Mus musculus, iv, 0.3 mg./kg. i.v., read-out: Ach percent inhibition): 30% |
| O=C(c1cccc2ccccc12)c1cn(CCN2CCOCC2)c2ccccc12 [Example 2AL] | – | – | inhibition in vivo at 0.1 mg/kg (Mus musculus, iv, 0.1 mg./kg. i.v., read-out: Ach percent inhibition): 20% |
| Cc1c(C(=O)c2ccc3occc3c2)c2ccccc2n1CCN1CCOCC1 [Example 2AM] | – | 80 | – |
